Test results published in patent US7829586B2, “Aryl-substituted nitrogen-containing heterocyclic compounds” (Banyu Pharmaceutical Co., Ltd., priority 2005, dated 2010).

Legend:
nociceptin receptor ORL1 [1] = biological target: T1, nociceptin receptor ORL1 (Homo sapiens, UniProt P41146); experiment: Nociceptin receptor binding inhibition assay ([125I]Tyr14-Nociceptin, CHO/ORL1 membrane fractions, SPA); set-up: expressed in transfected cells; membrane fractions; details: CHO/ORL1 membrane fraction, 50 pM [125I]Tyr14-Nociceptin, 37° C., 60 minutes
Method: Nociceptin Receptor Binding Inhibition Assay
A cDNA that codes for a human nociceptin receptor gene was cloned into an expression vector pCR3 (by Invitrogen) to prepare pCR3/ORL1. Next, pCR3/ORL1 was transfected in CHO cells using a transfectam (by Nippongene) to obtain a stable expression strain (CHO/ORL1 cells) having resistance against 1 mg/ml G418. Membrane fractions were prepared from this stable expression strain to carry out a receptor binding assay. 11 μg of the membrane fraction, 50 pM [^125I]Tyr^14-Nociceptin (by Amersham Pharmacia), 1 mg of wheatgerm agglutinin SPA beads (PVT based, by Amersham Pharmacia) and each test compound were suspended in an NC buffer (50 mM Hepes, 10 mM sodium chloride, 1 mM magnesium chloride, 2.5 mM calcium chloride, 0.1% BSA, 0.025% bacitracin, pH 7.4) and incubated at 37° C. for 60 minutes, and then the radioactivity of the culture was determined. The binding activity to the nociceptin receptor was indicated by the 50% inhibition concentration (IC50 value) of [^125I]Tyr^14-Nociceptin binding by each test compound.

nociceptin receptor ORL1 [2] = biological target: T1, nociceptin receptor ORL1; experiment: Antagonism against nociceptin-elicited G protein activation (GTPγ[35S] binding, CHO/ORL1 membranes); assay type: biochemical; set-up: expressed in transfected cells; membrane preparation; details: CHO/ORL1 membrane, 50 nM nociceptin, 200 pM GTPγ[35S], 25° C., 150 minutes
Method: Antagonism Against Nociceptin-Elicited G Protein Activation
CHO cells which stably expressed a nociceptin receptor ORL1 were used to investigate the action of each test compound against nociceptin-elicited G protein activation. A membrane prepared from the CHO/ORL1 cells, 50 nM nociceptin, 200 pM GTPγ[^35S] (by NEN), 1.5 mg of wheatgerm agglutinin SPA beads (by Amersham Pharmacia) and each test compound were mixed in a GDP buffer (20 mM Hepes, 100 mM sodium chloride, 10 mM magnesium chloride, 1 mM EDTA, 5 μM GDP, pH 7.4) and incubated at 25° C. for 150 minutes, and then the radioactivity was determined. The antagonism against the nociceptin-elicited G protein activation was shown by the 50% inhibition concentration (IC50 value) of the test compound against GTPγ[^35S] binding.

T1 sequence (P41146 whole entry): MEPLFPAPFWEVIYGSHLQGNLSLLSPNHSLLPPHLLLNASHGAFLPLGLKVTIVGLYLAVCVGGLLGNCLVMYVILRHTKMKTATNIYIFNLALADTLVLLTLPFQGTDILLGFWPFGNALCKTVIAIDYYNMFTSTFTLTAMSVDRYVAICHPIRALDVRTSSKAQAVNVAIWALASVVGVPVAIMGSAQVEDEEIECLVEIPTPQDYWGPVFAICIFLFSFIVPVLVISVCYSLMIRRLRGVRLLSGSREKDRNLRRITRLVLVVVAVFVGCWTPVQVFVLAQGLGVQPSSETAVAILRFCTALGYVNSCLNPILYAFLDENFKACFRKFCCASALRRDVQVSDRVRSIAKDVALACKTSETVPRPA

| Compound | IC50 (nociceptin receptor ORL1 [1]) [nM] | IC50 (nociceptin receptor ORL1 [2]) [nM] |
| --- | --- | --- |
| Cc1ncc(-c2c(C)c(CN[C@H]3CC[C@@H](F)C3)nn2C(C)C)cc1F [Example 2, 3-[(1S,3R)-3-fluorocyclopentylamino]methyl-5-(5-fluoro-6-methylpyridin-3-yl)-1-isopropyl-4-methyl-1H-pyrazole] | 0.92 | 0.61 |
| Cc1c(CN[C@H]2CC[C@@H](F)C2)n[nH]c1-c1cc(F)cc(F)c1 [Example 8, 5-(3,5-Difluorophenyl)-3-[(1S,3R)-3-fluorocyclopentylamino]methyl-4-methyl-1H-pyrazole] | 7.5 | 7.5 |
| Cc1c(CN[C@H]2CC[C@@H](F)C2)nn(CCC#N)c1-c1cc(F)cc(F)c1 [Example 13, 1-(2-Cyanoethyl)-5-(3,5-difluorophenyl)-3-[(1S,3R)-3-fluorocyclopentylamino]methyl-4-methyl-1H-pyrazole] | 8.2 | 4.6 |
| COCc1c(CN[C@H]2CC[C@@H](F)C2)n[nH]c1-c1cc(F)cc(F)c1 [Example 19, 5-(3,5-Difluorophenyl)-3-[(1S,3R)-3-fluorocyclopentylamino]methyl-4-methoxymethyl-1H-pyrazole] | 0.62 | 0.47 |
| COCc1c(CN[C@H]2CC[C@@H](OC)CC2)n[nH]c1-c1cc(F)cc(F)c1 [Example 34, 5-(3,5-Difluorophenyl)-3-(cis-4-methoxycyclohexylamino)methyl-4-methoxymethyl-1H-pyrazole] | 1.1 | 0.6 |
| CCc1c(CN[C@H]2CC[C@@H](F)CC2)nc(C)n1-c1cc(F)cc(F)c1 [Example 38, 1-(3,5-Difluorophenyl)-4-(cis-4-fluorocyclohexylamino)methyl-5-ethyl-2-methyl-1H-imidazole] | 6.8 | 6 |
